Marks after values point to notes of the source that are not given here.
Columns and labels:
Experiment in all cases: Calcium flux assay, CHO-K1 cells stably expressing Orexin receptor mutant
Type in all cases: cell-based, human
hOX1 Y311F = hOX1 Y311F (6.48) relative to wild type, CHO-K1, Fluo-4AM, this work
Experimental: (§1) A combination of overlap and mismatch polymerase chain reaction (PCR) was used to introduce mutations into the corresponding Orexin-1 and Orexin-2 cDNAs as described by us previously.[62] Each mutation was made via the generation of two overlapping PCR fragments with PfuUltra II Fusion HS DNA Polymerase (Strategene). The two products were extracted, and a second round of PCR was performed via combination of both fragments with 5′ and 3′ gene specific primers (containing BamHI and NotI restriction sites, respectively). The resulting gel-purified products were then cloned into expression vector pFB-Neo for subsequent generation of stable cell lines. Constructs were confirmed via sequencing. Each verified cDNA was subsequently used to generate single, stably expressing clones in the CHO-K1 cell line.
(§2) Standard calcium flux assays were used to assess the functionality of each OX receptor mutant. Each CHO-K1 Orexin mutant was seeded into tissue culture-treated, 384-well, black clear-bottom plates (CellBind Corning 7086), at a density of 7500 cells/well in culture medium and maintained in an incubator (5% CO2 at 37 °C) overnight. The cell medium was removed, and the cells were incubated in 20 μL of assay buffer (4 μM Fluo-4AM in HBSS with 0.1% BSA) for 90 min at 37 °C. After incubation, the dye was removed and 45 μL of fresh buffer, without dye, was applied. Antagonists (5 μL) were applied, and after incubation for an additional 20 min at 37 °C, 20 μL of receptor specific agonists was applied and the calcium flux monitored using a Flex Station (Molecular Devices) over a period of 1 min. In all cases, the EC80 specific for the individual mutant as determined in previous experiments was reported.

hOX1 Q179A = hOX1 Q179A (4.60) vs wild type, CHO-K1, Fluo-4AM, this work
Experimental: as §1, §2

hOX2 Q187A = hOX2 Q187A (4.60) relative to wild type, CHO-K1, Fluo-4AM, this work
Experimental: as §1, §2

hOX2 Q134A = hOX2 Q134A (3.32) relative to wild type, CHO-K1, Fluo-4AM, this work
Experimental: as §1, §2

hOX2 F227W = hOX2 F227W (5.42) relative to wild type, CHO-K1, Fluo-4AM, this work
Experimental: as §1, §2

Orexin-B
ratio EC50(mut)/EC50(WT) (hOX1 Y311F): 0.85 ^d fold | fold improvement in potency relative to wild type (hOX1 Q179A): 72.2 fold improvement | ratio EC50(mut)/EC50(WT) (hOX2 Q187A): 1.7 ^d fold | ratio EC50(mut)/EC50(WT) (hOX2 Q134A): 5.1 ^d fold | ratio EC50(mut)/EC50(WT) (hOX2 F227W): 75.0 ^d fold

From paper PMC3880013, “Toward an Understanding of Agonist Binding to Human Orexin-1 and Orexin-2 Receptors with G-Protein-Coupled Receptor Modeling and Site-Directed Mutagenesis” (Biochemistry, 2013)
